Measurements published in ChEMBL document CHEMBL3988442, “University of Dundee, Small-Polar-MMV Screening Library” (2021).

How the values were obtained:
[1] = In vitro enzyme assay to detect hydrolysis of chlorophenol red-beta-D-[…] directly proportional to the number of Toxoplasma stably expressing beta-galactosidase; type: functional, organism-based, Toxoplasma gondii; settings: for IC50: Toxoplasma gondii
[2] = microbe, parasite or virus in culture; settings: Mycobacterium tuberculosis, 96 h, read-out: pIC50 (converted)
[3] = microbe, parasite or virus in culture; settings: Mycobacterium tuberculosis, 72 h, read-out: pIC50 (converted)

Structure (SMILES)	IC50 [1] [µM]	also measured
CCNc1ncc2c(n1)CN(c1ccc(CC)cc1)C2=O	> 50.1	IC50 [2]: > 50.1 µM
C=C/C=c1\c(=C/C)oc2c(NCc3ccccc3)nc(C)nc12	37.2	IC50 [3]: 20.6 µM; IC50 [2]: 12.1 µM
Cc1cc(C)c(C#N)c(N2C[C@H](C3CC3)[C@@H](N)C2)n1	> 50.1	IC50 [3]: 247 µM; IC50 [2]: > 501 µM
Fc1cccc(-c2cccc(N3CCC(NC4CCCOC4)CC3)c2)c1 (stereo unspecified)	26.2	IC50 [3]: 27.4 µM; IC50 [2]: 30.8 µM
Brc1ccc(NCc2ccc(Cn3ccnc3)cc2)nc1	29.6	IC50 [3]: 3.73 µM; IC50 [2]: 4.63 µM
O=C(c1cc(C2CC2)n[nH]1)N1CCC2(CCCO2)CC1	> 50.1	IC50 [3]: > 501 µM; IC50 [2]: > 501 µM
Cc1cccc(OCCc2noc(C3CNC3)n2)c1	8.49	IC50 [3]: 89.2 µM; IC50 [2]: 163 µM
CC(C)c1ccc(C(CN)N2CCc3sccc3C2)cc1 (stereo unspecified)	13.4	IC50 [3]: 20.4 µM; pIC50 [1]: 5.076; IC50 [2]: 24.8 µM
Cn1nc2n(c1=O)CCN(Cc1ccc(Br)s1)CC2	> 50.1	IC50 [3]: 139 µM; IC50 [2]: > 501 µM
CC1CCN(C(=O)CSc2nncs2)CC1	> 50.1	IC50 [3]: 22.7 µM; IC50 [2]: 23.8 µM
CCC(C#N)NC(=O)c1cnc(OC(C)C)c(Cl)c1 (stereo unspecified)	> 50.1	IC50 [3]: 131 µM; IC50 [2]: 291 µM
CN(C)C(=O)Nc1cc(F)cc(F)c1	2.1	IC50 [3]: 30.2 µM; IC50 [2]: 30.6 µM
CCCn1c(N2CCCC(C)C2)nc2c(C)nn(C)c2c1=O (stereo unspecified)	22.2	pIC50 [1]: 4.506; IC50 [2]: > 50.1 µM
c1cc(-c2nn3c(CN4CCOCC4)nnc3s2)ccn1	44.7	pIC50 [1]: < 4.3
CCCNC(=O)CCn1nc(C)cc1C	> 50.1	
Cc1nc(N2CCN(C(=O)c3ccncc3)CC2)c2c(n1)c(C)nn2C	> 50.1	
O=C1COC2(CCN(S(=O)(=O)C3CC3)CC2)CN1c1cccnc1	> 50.1	
Cc1ncc(C(=O)N2C[C@@H]3CCCN[C@@H]3C2)c(C)n1	> 50.1	
N#Cc1ccccc1NC(=O)CCN1CCCC(O)C1 (stereo unspecified)	> 50.1	
Cn1cc(CN2C[C@@H]3COC[C@H](C(=O)Nc4cccnc4)[C@@H]3C2)cn1	> 50.1	
CCn1cc(NC(=O)c2cc(C)nc(N3CCOCC3)n2)cn1	> 25.1	
Cc1c(-c2ccccc2)nc2c(c(C)c(C)n2CCN(C)C)c1N	15.6	
CCc1nc(C)cn1C(=O)Nc1ccccc1	5.1	
CSc1ccccc1NCC(=O)NC1CC1	> 50.1	
COc1ccc(C)cc1CC(=O)N1CCN(C)CC1	> 50.1	
CC(C)(C)c1cn2c(n1)C(CNCc1cnn3ccccc13)CCC2 (stereo unspecified)	2.52	

Structure (SMILES)	IC50 [1] [µM]	also measured
CCS(=O)(=O)N(CCc1cccs1)CC(=O)NC	> 50.1	
CC(=O)NCc1cccc(OCc2ccccn2)c1	> 50.1	
Cc1oc(-c2ccoc2)nc1CN1CCC[C@H]1CO	4.96	
CC(Cc1ccco1)NS(=O)(=O)N1CCOCC1 (stereo unspecified)	> 50.1	
CCN(CC(C)C#N)C(=O)c1ccc(Br)o1 (stereo unspecified)	> 50.1	
CCC(=O)c1nccn1C	> 50.1	
OCCNc1nc2ccccc2s1	> 50.1	
CCC(=O)N1CCN(c2ncnc3cc4c(cc23)OCCO4)CC1	> 50.1	
COCCNC(=O)Nc1cc(Cl)ccc1OC	> 50.1	
CC(C)CSc1nnc(CN2CCCC2=O)o1	> 50.1	
O=C(Nc1ccncc1)NC1CCN(c2ccccc2OC(F)F)C1 (stereo unspecified)	1.87	
Cc1ccc(C(=O)N2CCN(C(C)C(N)=O)CC2)s1 (stereo unspecified)	> 50.1	
COc1ccc(CC#N)cc1S(C)(=O)=O	> 50.1	
O=C(NC1CCCSC1)N(CCO)C1CC1 (stereo unspecified)	> 50.1	
COc1cccc(-c2noc(C3CCN(Cc4ccccc4C)C3)n2)c1 (stereo unspecified)	10.1	
NC1CN(S(=O)(=O)c2ccc3c(c2)OCCO3)C1	> 50.1	
CCCNC(=O)NCCc1noc(-c2cccnc2)n1	> 50.1	
CC(C)C(=O)N1CCN(c2ncnc3cc4c(cc23)OCCO4)CC1	> 50.1	
Fc1ccc(-c2n[nH]cc2-c2ccnc(NCCN3CCCC3)n2)cc1	7.48	
CCn1nc(C)c2nc(C(C)C)nc(NCCc3ccc(O)cc3)c21	22.2	pIC50 [1]: 4.521
COc1ccc(-c2nnc(SC(C)C(=O)NC3CCCC3)[nH]2)c(OC)c1 (stereo unspecified)	> 50.1	
CN(C)[C@@H]1CN(C(=O)c2ccccc2Br)C[C@H]1CO	> 50.1	
Cc1cc2cc(C(=O)N3CC[C@@H](N)[C@H](O)C3)ccc2o1	> 50.1	
COc1ccccc1N1CCCC(N)C1 (stereo unspecified)	> 50.1	
CCN1C[C@H](NC(=O)c2snnc2C(C)C)[C@@H](OC)C1	> 50.1	
CCNc1ncc2c(n1)CN(c1ccc(OC(F)(F)F)cc1)C2=O	> 50.1	

Structure (SMILES)	IC50 [1] [µM]	also measured
O=C(CN1CCc2sccc2C1)Nc1ccnc2ccnn12	2.81	pIC50 [1]: 5.251
CC(C)N1CCCN(c2nc(-c3cccnc3)nc3c2cnn3C)CC1	5.84	
CCn1c(NCc2ccccc2)nc2c(C)nn(C)c2c1=O	22.7	pIC50 [1]: 4.457
CCc1nc2ccccc2c(=O)n1CC1(O)CCN(C(=O)COC)CC1	> 50.1	
Cc1ccc(C)c(C(=O)N2CCC3(CCC(=O)N(CC(N)=O)C3)CC2)c1	> 50.1	
CC(=O)N1CCN(c2ncnc3cc4c(cc23)OCCO4)CC1	> 50.1	
COCC(=O)NCc1nn(CCN2CCCC2)c(=O)c2ccccc12	26.7	
N#CCCNC(=O)CN1CCCC1	> 50.1	
CC(=O)N1CC[C@@]2(C(=O)Nc3ccccc3)CCN(S(C)(=O)=O)CC[C@@H]12	> 50.1	
COc1ccc(-c2cncc(N)c2)cc1CO	> 50.1	
Cc1nnc(SCCO)s1	> 50.1	
CCC1=NC(SCC(=O)c2ccc(OC)cc2)c2cc(CC)sc2N1 (stereo unspecified)	37.7	
O=C(NCCn1cnc(C2CCCC2)cc1=O)NCc1cccs1	7.44	
Cc1nc([C@H]2CCCN2)cs1	> 50.1	
Cc1ccc(CNC(=O)c2cc(C)n(C)n2)o1	> 50.1	
Cc1ccc(NC(=O)CCCNC(=O)C2CC2)cc1	> 50.1	
CN(C)[C@H]1CCCCN(C(=O)Cn2cc(Cl)cn2)C1	> 50.1	
CCOCCNC(=O)c1cccnc1Sc1cc(OC)ccc1OC	> 50.1	
Cc1nnc2n1N=C(c1ccccc1)CS2	> 50.1	
COc1cc2nc(NCc3scnc3C)nc(N)c2cc1OC	15.6	
CNCc1ccc(N)nc1	> 50.1	
CN1CCC(NCC(O)c2cccc(OCc3ccccc3)c2)CC1 (stereo unspecified)	7.98	
CS(=O)(=O)c1ccc(-c2cc(O)cc(CCC3CCCCN3)c2)cc1 (stereo unspecified)	16.6	
c1ccc(-c2nn3c(CN4CCOCC4)nnc3s2)nc1	> 50.1	
Cc1nnc(NCc2cccc(OCC3CCCO3)c2)c(C#N)c1C (stereo unspecified)	> 50.1	
OC1(CNCCOCc2ccc(Cl)cc2)CCCNC1 (stereo unspecified)	> 50.1	

Structure (SMILES)	IC50 [1] [µM]	also measured
OC1(Cc2ccccc2F)CCNC1 (stereo unspecified)	> 50.1	
c1cc(SCCOCC2CCCO2)ccn1 (stereo unspecified)	> 50.1	
OC[C@H]1CCCN1c1nccc(-c2c[nH]nc2C2CCCCC2)n1	11.5	
COc1ccc(CC(=O)NCC2CCCNC2)cc1F (stereo unspecified)	> 50.1	
CCC(=O)NC1CCCc2nc(N(C)C)ncc21 (stereo unspecified)	> 50.1	
COCc1ccccc1C(=O)N1CCCC(O)C1 (stereo unspecified)	> 50.1	
Cc1cc(C(=O)NCCc2noc(C3CC3)n2)nn1C	> 50.1	
O=C([C@@H]1CCO[C@@H]2CCN(Cc3ccc(F)cc3)C[C@H]21)N1CCCCO1	> 50.1	
CNc1cc(-c2cccc(OC)c2)[nH]n1	> 50.1	
CCN(Cc1nonc1C)C(=O)Cn1nc(C(F)(F)F)cc1C1CC1	> 50.1	
Nc1c[nH]nc1C(=O)NCc1cccc(Cl)c1	> 50.1	
CCOc1ncccc1C(=O)NCC(C)N1CCCC1 (stereo unspecified)	> 50.1	
CN(C)c1ncc2c(n1)CN(C1CCSCC1)C2=O	> 50.1	
NC1CCN(C(=O)Nc2ccccc2)C1 (stereo unspecified)	> 50.1	
CCC(C)Oc1ccc(CNCCc2c[nH]cn2)cc1Cl (stereo unspecified)	29	
Cn1cc(CN2CCn3cc(Cn4cccn4)nc3C2)cn1	> 50.1	
CN[C@@H]1COc2ccccc2[C@H](O)C1	> 50.1	
N[C@@H]1CC[C@H](C(=O)NCc2csc(N3CCCC3)n2)C1	> 50.1	
O=C(c1ccc(-c2ccc(O)nc2)s1)N1CCCCC1	> 50.1	
NCCc1cc(C(F)(F)F)ccn1	> 50.1	
COc1ccc(C2=NOC(C(=O)N3CCCc4ccccc43)C2)cc1 (stereo unspecified)	27.9	
NCc1ccnc(N2CCCC2)n1	> 50.1	
CNc1cccnc1N(C)C	> 50.1	
